# Structures can show the parent of a compound that is named as a salt.
# System: HeLa cells
# Assay: CellTiter-Glo luminescent cell viability (cytotoxicity) assay
# Type: cell-based
# Details: 10 μM test compound, 48 hours, inhibition of luminescence compared to control cells, 10 µM
# Protocol: Cytotoxicity was assessed using Promega's CellTiter-Glo® luminescent cell viability assay (Promega Corporation, Madison, Wis., USA) as described in Promega Technical Bulletin TB288, revised August 2008. The assay was performed in HeLa cells at a maximum concentration tested of 10 μM of test compound. This assay measures the amount of adenosine triphosphate (ATP) present as a way of quantifying the presence and degree of metabolic activity in cell cultures.
# Viable Hela cells were plated at a density of 3000 cells/well in 96 wells in black, clear bottom plates. Cells were allowed to attach to the plate by incubating overnight at 37° C. Test compounds were diluted in DMSO then further diluted in 10% FBS media. Media was removed from the cell plates and 50 μL of the solution was added to each well manually with the exception of the control well, which contained the same volume of 10% FBS media which includes 1% DMSO. Cells were incubated in the presence of compound undisturbed for 48 hours at 37° C. After the 48 hour compound exposure, 50 μL of the pCellTiter Glo® reagent was added. The cell plates were agitated on a shaker for 2 minutes to help lyse the cells. The plate was covered and read for luminescence.
# Percent inhibition was calculated as follows: PCT_INHIB=100*[(U−T)/U] Where U represents the Luminescence of wells containing untreated cells and
# T represents the Luminescence of wells containing compound-treated cells
row,SMILES,Activity (PCT_INHIB @ 10 μM)
1,"COc1ccc(Cl)c(CN(Cc2cccc(CN3C(C(=O)NC45CC6CC(CC(C6)C4)C5)CCS3(=O)=O)c2)[C@H](CN(C)C)CC(C)(C)C)c1F (single isomer, unassigned; epimer 1) [Example 33]",96%

# Same assay, conditions: Homo sapiens, HeLa, 48 h, 10 μM test compound, inhibition of luminescence compared to control cells, read-out: Activity (PCT_INHIB @ 10 μM)
row,SMILES,inhibition at 10 µM
1,"COc1ccc(Cl)c(CN(Cc2cccc(CN3C(C(=O)N[C@H]4C[C@H]5C[C@@H]([C@@H]4C)C5(C)C)CCS3(=O)=O)c2)[C@@H](Cc2cccc(Cl)c2)CN(C)C)c1F (stereo partly drawn) [Example 22, 2-[3-({(6-Chloro-2-fluoro-3-methoxy-benzyl)-[(S)-2-(3-chloro-phenyl)-1-dimethylaminomethyl-ethyl]-amino}-methyl)-benzyl]-1,1-dioxo-1λ^6-isothiazolidine-3-carboxylic acid((1S,2S,3S,5R)-2,6,6-trimethyl-bicyclo[3.1.1]hept-3-yl)-amide]",93%
2,"C[C@@H]1[C@@H](NC(=O)C2CCS(=O)(=O)N2Cc2cccc(CN(Cc3c(F)ccc(F)c3F)[C@H](CN(C)C)CC(C)(C)C)c2)C[C@H]2C[C@@H]1C2(C)C (stereo partly drawn) [Example 13, 2-(3-{[((S)-1-Dimethylaminomethyl-3,3-dimethyl-butyl)-(2,3,6-trifluoro-benzyl)-amino]-methyl}-benzyl)-1,1-dioxo-1λ^6-isothiazolidine-3-carboxylic acid((1S,2S,3S,5R)-2,6,6-trimethyl-bicyclo[3.1.1]hept-3-yl)-amide trifluoroacetate salt]",93%
3,"Cc1ccc(Cl)c(CN(Cc2cccc(CN3C(C(=O)N[C@H]4C[C@H]5C[C@@H]([C@@H]4C)C5(C)C)CCS3(=O)=O)c2)[C@H](CN(C)C)CC(C)(C)C)c1F (stereo partly drawn) [Example 15, 2-(3-{[(6-Chloro-2-fluoro-3-methyl-benzyl)-((S)-1-dimethylaminomethyl-3,3-dimethylbutyl)-amino]-methyl}-benzyl)-1,1-dioxo-1λ^6-isothiazolidine-3-carboxylic acid((1S,2S,3S,5R)-2,6,6-trimethyl-bicyclo[3.1.1]hept-3-yl)-amide trifluoroacetate salt]",91%
4,"COc1ccc(Cl)c(CN(Cc2cccc(CN3C(C(=O)N[C@H]4C[C@H]5C[C@@H]([C@@H]4C)C5(C)C)CCS3(=O)=O)c2)[C@@H](Cc2ccccc2)CN(C)C)c1F (stereo partly drawn) [Example 21, 2-(3-{[(6-Chloro-2-fluoro-3-methoxy-benzyl)-((S)-1-dimethylaminomethyl-2-phenyl-ethyl)-amino]-methyl}-benzyl)-1,1-dioxo-1λ^6-isothiazolidine-3-carboxylic acid((1S,2S,3S,5R)-2,6,6-trimethyl-bicyclo[3.1.1]hept-3-yl)-amide]",77%
5,"Cc1ccccc1-c1ccccc1CN(Cc1cccc(CN2C(C(=O)N[C@H]3C[C@H]4C[C@@H]([C@@H]3C)C4(C)C)CCS2(=O)=O)c1)[C@H](CN(C)C)CC(C)(C)C (stereo partly drawn) [Example 11, 2-(3-{[((S)-1-Dimethylaminomethyl-3,3-dimethyl-butyl)-(2′-methyl-biphenyl-2 ylmethyl)-amino]-methyl}-benzyl)-1,1-dioxo-1λ^6-isothiazolidine-3-carboxylic acid((1S,2S,3S,5R)-2,6,6-trimethyl-bicyclo[3.1.1]hept-3-yl)-amide trifluoroacetate salt]",97%
6,"CCOc1ccccc1CN(Cc1cccc(CN2C(C(=O)N[C@H]3C[C@H]4C[C@@H]([C@@H]3C)C4(C)C)CCS2(=O)=O)c1)[C@H](CN(C)C)CC(C)(C)C (stereo partly drawn) [Example 3, 2-(3-{[((S)-1-Dimethylaminomethyl-3,3-dimethyl-butyl)-(2-ethoxy-benzyl)-amino]methyl}-benzyl)-1,1-dioxo-1λ^6-isothiazolidine-3-carboxylic acid((1S,2S,3S,5R)-2,6,6-trimethyl-bicyclo[3.1.1]hept-3-yl)-amide trifluoroacetate salt]",69%
7,"COc1ccc(Cl)c(CN(Cc2cccc(CN3C(C(=O)NCc4ccc(Cl)cc4)CCS3(=O)=O)c2)[C@H](CN(C)C)CC(C)(C)C)c1F (stereo partly drawn) [Example 27, 2-(3-{[(6-Chloro-2-fluoro-3-methoxy-benzyl)-((S)-1-dimethylaminomethyl-3,3-dimethyl-butyl)-amino]-methyl}-benzyl)-1,1-dioxo-1λ^6-isothiazolidine-3-carboxylic acid 4-chloro-benzylamide]",95%
8,"Cc1ccc(O)c(CN(Cc2cccc(CN3C(C(=O)N[C@H]4C[C@H]5C[C@@H]([C@@H]4C)C5(C)C)CCS3(=O)=O)c2)[C@H](CN(C)C)CC(C)(C)C)c1 (stereo partly drawn) [Example 10, 2-(3-{[((S)-1-Dimethylaminomethyl-3,3-dimethyl-butyl)-(2-hydroxy-5-methyl-benzyl)-amino]-methyl}-benzyl)-1,1-dioxo-1λ^6-isothiazolidine-3-carboxylic acid((1S,2S,3S,5R)-2,6,6-trimethyl-bicyclo[3.1.1]hept-3-yl)-amide trifluoroacetate salt]",96%
9,"COc1ccc(Cl)c(CN(Cc2cccc(CN3C(C(=O)N[C@H]4CC5CCC4(C)C5(C)C)CCS3(=O)=O)c2)[C@H](CN(C)C)CC(C)(C)C)c1F (stereo partly drawn) [Example 28, 2-(3-{[(6-Chloro-2-fluoro-3-methoxy-benzyl)-((S)-1-dimethylaminomethyl-3,3-dimethyl-butyl)-amino]-methyl}-benzyl)-1,1-dioxo-1λ^6-isothiazolidine-3-carboxylic acid((S)-1,7,7-trimethyl-bicyclo[2.2.1]hept-2-yl)-amide]",96%
10,"COc1ccc(Cl)c(CN(Cc2cccc(CN3C(C(=O)N4CCC(c5ccccc5)CC4)CCS3(=O)=O)c2)[C@H](CN(C)C)CC(C)(C)C)c1F (stereo partly drawn) [Example 24, [2-(3-{[(6-Chloro-2-fluoro-3-methoxy-benzyl)-((S)-1-dimethylaminomethyl-3,3-dimethyl-butyl)-amino]-methyl}-benzyl)-1,1-dioxo-1λ^6-isothiazolidin-3-yl]-(4-phenyl-piperidin-1-yl)-methanone]",96%
11,"COc1ccc(Cl)c(CN(Cc2cccc(CN3C(C(=O)NC4C5CC6CC(C5)CC4C6)CCS3(=O)=O)c2)[C@H](CN(C)C)CC(C)(C)C)c1F (stereo partly drawn) [Example 30, 2-(3-{[(6-Chloro-2-fluoro-3-methoxy-benzyl)-((S)-1-dimethylaminomethyl-3,3-dimethyl-butyl)-amino]-methyl}-benzyl)-1,1-dioxo-1λ^6-isothiazolidine-3-carboxylic acid adamantan-2-ylamide]",96%
12,"C[C@@H]1[C@@H](NC(=O)C2CCS(=O)(=O)N2Cc2cccc(CN(Cc3ccccc3-c3ccc(F)cc3)[C@H](CN(C)C)CC(C)(C)C)c2)C[C@H]2C[C@@H]1C2(C)C (stereo partly drawn) [Example 8, 2-(3-{[((S)-1-Dimethylaminomethyl-3,3-dimethyl-butyl)-(4′-fluoro-biphenyl-2 ylmethyl)-amino]-methyl}-benzyl)-1,1-dioxo-1λ^6-isothiazolidine-3-carboxylic acid((1S,2S,3S,5R)-2,6,6-trimethyl-bicyclo[3.1.1]hept-3-yl)-amide trifluoroacetate salt]",97%
13,"C[C@@H]1[C@@H](NC(=O)C2CCS(=O)(=O)N2Cc2cccc(CN(Cc3cc(Cl)ccc3O)[C@H](CN(C)C)CC(C)(C)C)c2)C[C@H]2C[C@@H]1C2(C)C (stereo partly drawn) [Example 1, 2-(3-{[(5-Chloro-2-hydroxy-benzyl)-((S)-1-dimethylaminomethyl-3,3-dimethyl-butyl)-amino]-methyl}-benzyl)-1,1-dioxo-1λ^6-isothiazolidine-3-carboxylic acid((1S,2S,3S,5R)-2,6,6-trimethyl-bicyclo[3.1.1]hept-3-yl)-amide]",96%

# — patent US8314250B2, “Sultam derivatives” (Hoffmann-La Roche Inc., priority 2009, dated 2012)
